Results from US6448204B1, “Herbicidal 2-aryloxy-4-methyl-6-pyrazol-1-yl-pyridines” (BASF Aktiengesellschaft, priority 1999, dated 2002).

Columns and labels:
Format in all cases: in vivo
Galium aparine (GALAP) [1] = experiment: Post-emergence test; conditions: 2-4 weeks after treatment
Experimental: (§1) To evaluate their herbicidal activity, compounds according to the invention are tested using a representative range of plants:
(§2) These acetone solutions are diluted with water and the resulting formulations applied at dosage levels equivalent of about 0.025 to 0.4 kg per hectare of test compound per pot. After spraying the plants are placed on greenhouse benches and are cared for in the usual manner, commensurate with conventional greenhouse practices. From 2 to 4 weeks after treatment, the seedling plants are examined and rated according to the rating system provided above.

[2] = test system: Lolium multiflorum (LOLMU); experiment: Post-emergence test; conditions: 2-4 weeks after treatment
Experimental: as §1, §2

[3] = test system: Digitaria sanguinalis (DIGSA); experiment: Post-emergence test; conditions: 2-4 weeks after treatment
Experimental: as §1, §2

Setaria viridis (SETVI) = experiment: Post-emergence test; conditions: 2-4 weeks after treatment
Experimental: as §1, §2

[4] = test system: Ambrosia artemisifolia (AMBEL); experiment: Post-emergence test; conditions: 2-4 weeks after treatment
Experimental: as §1, §2

Stellaria media (STEME) = experiment: Post-emergence test; conditions: 2-4 weeks after treatment
Experimental: as §1, §2

[5] = test system: Ipomoea hederacea (IPOHE); experiment: Post-emergence test; conditions: 2-4 weeks after treatment
Experimental: as §1, §2

[6] = test system: Cassia obtusifolia (CASOB); experiment: Post-emergence test; conditions: 2-4 weeks after treatment
Experimental: as §1, §2

[7] = test system: Alopecurus myosuroides (ALOMY); experiment: Post-emergence test; conditions: 2-4 weeks after treatment
Experimental: as §1, §2

[8] = test system: Matricaria inodora (MATIN); experiment: Post-emergence test; conditions: 2-4 weeks after treatment
Experimental: as §1, §2

[9] = test system: Abutilon theophrasti (ABUTH); experiment: Post-emergence test; conditions: 2-4 weeks after treatment
Experimental: as §1, §2

[10] = test system: Echinochloa crus-galli (ECHCG); experiment: Post-emergence test; conditions: 2-4 weeks after treatment
Experimental: as §1, §2

Lamium purpureum (LAMPU) = experiment: Post-emergence test; conditions: 2-4 weeks after treatment
Experimental: as §1, §2

Galium aparine (GALAP) [11] = experiment: Pre-emergence test; conditions: 3 weeks after treatment
Experimental: (§3) To evaluate their herbicidal activity, compounds according to the invention are tested using a representative range of plants: […] The pre-emergence tests involve spraying a liquid formulation of the compound onto the soil in which the seeds of the plant species mentioned above has recently been sown. The soil used in the tests is a prepared horticultural loam. […] In these tests untreated sown soil are used as controls.

[12] = test system: Lolium multiflorum (LOLMU); experiment: Pre-emergence test; conditions: 3 weeks after treatment
Experimental: as §3

Zea mays (ZEAMX) = experiment: Pre-emergence test; conditions: crop (corn), 3 weeks after treatment
Experimental: as §3

Assessment rating ZEAMX (pre-emergence application) (Zea mays (ZEAMX); 0.013 kg/ha): 0 (0 - No effect)
Assessment rating ZEAMX (pre-emergence application) (Zea mays (ZEAMX); 0.025 kg/ha): 1 (1 - Trace effect)
Assessment rating ZEAMX (pre-emergence application) (Zea mays (ZEAMX); 0.100 kg/ha): 2 (2 - Slight effect)
Compound: Cc1cc(Oc2cc(C(F)(F)F)nn2C)nc(-n2ccc(C(F)(F)F)n2)c1 [Example 2, 4-methyl-2-(-3-trifluoromethyl-1H-prazol-1-yl)-6-(1-methyl-3-trifluoromethyl-pyrazol-5-yloxy)-pyridine]
Rating GALAP (post-emergence application) (Galium aparine (GALAP) [1]; 0.025 kg/ha): 5 (5 - Definite injury)
Rating GALAP (post-emergence application) (Galium aparine (GALAP) [1]; 0.100 kg/ha): 6 (6 - Herbicidal effect)
Rating GALAP (post-emergence application) (Galium aparine (GALAP) [1]; 0.400 kg/ha): 8 (8 - Approaching complete kill)
Rating LOLMU (post-emergence application) ([2]; 0.025 kg/ha): 6 (6 - Herbicidal effect)
Rating LOLMU (post-emergence application) ([2]; 0.100 kg/ha): 9 (9 - Complete kill)
Rating LOLMU (post-emergence application) ([2]; 0.400 kg/ha): 9 (9 - Complete kill)
Rating DIGSA (post-emergence application) ([3]; 0.025 kg/ha): 6 (6 - Herbicidal effect)
Rating DIGSA (post-emergence application) ([3]; 0.100 kg/ha): 8 (8 - Approaching complete kill)
Rating DIGSA (post-emergence application) ([3]; 0.400 kg/ha): 9 (9 - Complete kill)
Rating SETVI (post-emergence application) (Setaria viridis (SETVI); 0.025 kg/ha): 6 (6 - Herbicidal effect)
Rating SETVI (post-emergence application) (Setaria viridis (SETVI); 0.100 kg/ha): 8 (8 - Approaching complete kill)
Rating SETVI (post-emergence application) (Setaria viridis (SETVI); 0.400 kg/ha): 9 (9 - Complete kill)
Rating AMBEL (post-emergence application) ([4]; 0.025 kg/ha): 6 (6 - Herbicidal effect)
Rating AMBEL (post-emergence application) ([4]; 0.100 kg/ha): 8 (8 - Approaching complete kill)
Rating AMBEL (post-emergence application) ([4]; 0.400 kg/ha): 8 (8 - Approaching complete kill)
Rating STEME (post-emergence application) (Stellaria media (STEME); 0.025 kg/ha): 8 (8 - Approaching complete kill)
Rating STEME (post-emergence application) (Stellaria media (STEME); 0.100 kg/ha): 9 (9 - Complete kill)
Rating STEME (post-emergence application) (Stellaria media (STEME); 0.400 kg/ha): 9 (9 - Complete kill)
Rating IPOHE (post-emergence application) ([5]; 0.025 kg/ha): 9 (9 - Complete kill)
Rating IPOHE (post-emergence application) ([5]; 0.100 kg/ha): 9 (9 - Complete kill)
Rating IPOHE (post-emergence application) ([5]; 0.400 kg/ha): 9 (9 - Complete kill)
Rating CASOB (post-emergence application) ([6]; 0.025 kg/ha): 9 (9 - Complete kill)
Rating CASOB (post-emergence application) ([6]; 0.100 kg/ha): 9 (9 - Complete kill)
Rating CASOB (post-emergence application) ([6]; 0.400 kg/ha): 9 (9 - Complete kill)
Rating ALOMY (post-emergence application) ([7]; 0.025 kg/ha): 4 (4 - Injury)
Rating ALOMY (post-emergence application) ([7]; 0.100 kg/ha): 8 (8 - Approaching complete kill)
Rating ALOMY (post-emergence application) ([7]; 0.400 kg/ha): 8 (8 - Approaching complete kill)
Rating MATIN (post-emergence application) ([8]; 0.025 kg/ha): 6 (6 - Herbicidal effect)
Rating MATIN (post-emergence application) ([8]; 0.100 kg/ha): 8 (8 - Approaching complete kill)
Rating MATIN (post-emergence application) ([8]; 0.400 kg/ha): 8 (8 - Approaching complete kill)
Rating ABUTH (post-emergence application) ([9]; 0.025 kg/ha): 6 (6 - Herbicidal effect)
Rating ABUTH (post-emergence application) ([9]; 0.100 kg/ha): 8 (8 - Approaching complete kill)
Rating ABUTH (post-emergence application) ([9]; 0.400 kg/ha): 9 (9 - Complete kill)
Rating ECHCG (post-emergence application) ([10]; 0.025 kg/ha): 6 (6 - Herbicidal effect)
Rating ECHCG (post-emergence application) ([10]; 0.100 kg/ha): 9 (9 - Complete kill)
Rating ECHCG (post-emergence application) ([10]; 0.400 kg/ha): 9 (9 - Complete kill)
Rating LAMPU (post-emergence application) (Lamium purpureum (LAMPU); 0.025 kg/ha): 8 (8 - Approaching complete kill)
Rating LAMPU (post-emergence application) (Lamium purpureum (LAMPU); 0.100 kg/ha): 9 (9 - Complete kill)
Rating LAMPU (post-emergence application) (Lamium purpureum (LAMPU); 0.400 kg/ha): 9 (9 - Complete kill)
Assessment rating GALAP (pre-emergence application) (Galium aparine (GALAP) [11]; 0.013 kg/ha): 1 (1 - Trace effect)
Assessment rating GALAP (pre-emergence application) (Galium aparine (GALAP) [11]; 0.025 kg/ha): 3 (3 - Moderate effect)
Assessment rating GALAP (pre-emergence application) (Galium aparine (GALAP) [11]; 0.100 kg/ha): 6 (6 - Herbicidal effect)
Assessment rating GALAP (pre-emergence application) (Galium aparine (GALAP) [11]; 0.400 kg/ha): 8 (8 - Approaching complete kill)
Assessment rating LOLMU (pre-emergence application) ([12]; 0.013 kg/ha): 6 (6 - Herbicidal effect)
Assessment rating LOLMU (pre-emergence application) ([12]; 0.025 kg/ha): 6 (6 - Herbicidal effect)
Assessment rating LOLMU (pre-emergence application) ([12]; 0.100 kg/ha): 8 (8 - Approaching complete kill)
Assessment rating LOLMU (pre-emergence application) ([12]; 0.400 kg/ha): 8 (8 - Approaching complete kill)
Assessment rating ZEAMX (pre-emergence application) (Zea mays (ZEAMX); 0.400 kg/ha): 4 (4 - Injury)
